Measured values: DBAASP
≈ marks a conversion by molar mass, not a printed value. Values belong to the compound of their own block, whether it stands above or below them.

How the values were obtained:
Experiment in all cases: ≥ marks a high value that may be exact or a test limit, other limits are often not marked, values filed in µg/mL are converted to µM
[1] = test system: Staphylococcus aureus ATCC 6538P
[2] = test system: Klebsiella pneumoniae ATCC 10031
[3] = test system: Pseudomonas aeruginosa ATCC 27853
[4] = test system: Escherichia coli ATCC 25922
[5] = test system: Salmonella enterica subsp. enterica serovar Typhimurium ATCC 14028
[6] = test system: Micrococcus luteus ATCC 10240
[7] = test system: Shigella dysenteriae ATCC 9752
[8] = test system: Staphylococcus epidermidis ATCC 12228
[9] = test system: Bacillus subtilis ATCC 6633
[10] = test system: Candida albicans ATCC 2002
[11] = test system: Pseudomonas aeruginosa
[12] = test system: Shigella dysenteriae
[13] = test system: Bacillus cereus
[14] = test system: Staphylococcus aureus ATCC 2592
[15] = test system: Pseudomonas aeruginosa PAO1
[16] = test system: Staphylococcus aureus USA 300
[17] = test system: Bacillus subtilis 168
[18] = test system: Escherichia coli K-12
[19] = test system: Staphylococcus aureus ATCC 6538
[20] = test system: Staphylococcus aureus
[21] = test system: Escherichia coli B

MIC [1]: ≥ 70.9 µM
MIC [2]: ≥ 142 µM
MIC [3]: 142 µM (≈ 200 µg/mL)
MIC [4]: 70.9 µM (≈ 99.9 µg/mL)
MIC [5]: 142 µM (≈ 200 µg/mL)
MIC [6]: 17.7 µM (≈ 25 µg/mL)
MIC [7]: ≥ 35.4 µM
MIC [8]: 70.9 µM (≈ 99.9 µg/mL)
MIC [9]: 17.7 µM (≈ 25 µg/mL)
Structure (SMILES): C[C@H](NC(=O)[C@H](Cc1c[nH]c2ccccc12)NC(=O)[C@H](CCCCN)NC(=O)[C@H](C)NC(=O)[C@@H](N)Cc1ccccc1)C(=O)N[C@@H](Cc1ccccc1)C(=O)N[C@@H](CCCCN)C(=O)N[C@@H](Cc1c[nH]c2ccccc12)C(=O)N[C@@H](C)C(=O)N[C@@H](CCCCN)C(=O)N[C@@H](CCCCN)C(N)=O [FAKWAFKWAKK]

MIC [10]: 8.76 µM (≈ 18.7 µg/mL)
MIC [4]: > 46.7 µM
MIC [12]: 17.5 µM (≈ 37.5 µg/mL)
MIC [14]: 4.38 µM (≈ 9.37 µg/mL)
Structure (SMILES): CC[C@H](C)[C@H](NC(=O)CNC(=O)[C@H](CO)NC(=O)[C@H](CC(C)C)NC(=O)[C@H](CC(C)C)NC(=O)CN)C(=O)N[C@@H](CC(C)C)C(=O)NCC(=O)N[C@@H](C)C(=O)NCC(=O)N[C@@H](CCCCN)C(=O)N[C@@H](Cc1cnc[nH]1)C(=O)N[C@H](C(=O)N[C@H](C(=O)N[C@H]1CSSC[C@@H](C(=O)N[C@@H](C)C(=O)N[C@@H](CCCCN)C(=O)N[C@@H](C)C(=O)O)NC(=O)CNC(=O)[C@H]([C@@H](C)O)NC(=O)[C@H](CC(C)C)NC(=O)CNC1=O)C(C)C)[C@@H](C)CC [GLLSGILGAGKHIVCGLTGCAKA]

MIC [19]: > 25 µM
MIC [3]: > 6 µM
MIC [18]: 3 µM (≈ 7.97 µg/mL)
Structure (SMILES): CC[C@H](C)[C@H](NC(=O)[C@H](CCSC)NC(=O)[C@H](CCCCN)NC(=O)[C@H](CCC(=O)O)NC(=O)[C@H](C)NC(=O)[C@H](CCCCN)NC(=O)[C@H](CCCCN)NC(=O)[C@H](Cc1ccccc1)NC(=O)[C@@H](NC(=O)[C@H](CCCCN)NC(=O)[C@H](Cc1c[nH]c2ccccc12)NC(=O)[C@@H](N)CCCCN)C(C)C)C(=O)N[C@@H](CCCN=C(N)N)C(=O)N[C@@H](CC(N)=O)C(=O)N[C@H](C(=O)N[C@@H](CCCN=C(N)N)C(=O)N[C@@H](CC(N)=O)C(=O)N[C@@H](CCCCN)C(=O)N[C@H](C(=O)N[C@H](C(=O)N[C@@H](CCCCN)C(N)=O)C(C)C)[C@@H](C)CC)[C@@H](C)CC [KWKVFKKAEKMIRNIRNKIVK]

MIC [1]: 24 µM (≈ 25 µg/mL)
MIC [2]: ≥ 192 µM
MIC [3]: 48 µM (≈ 50 µg/mL)
MIC [4]: 96 µM (≈ 99.9 µg/mL)
MIC [5]: > 192 µM
MIC [6]: ≥ 96 µM
MIC [7]: ≥ 192 µM
MIC [8]: 96 µM (≈ 99.9 µg/mL)
MIC [9]: ≥ 48 µM
Structure (SMILES): CC(C)C[C@H](NC(=O)[C@H](CCCCN)NC(=O)[C@H](CCCCN)NC(=O)[C@H](CC(C)C)NC(=O)[C@H](Cc1c[nH]c2ccccc12)NC(=O)[C@H](CCCCN)NC(=O)[C@H](CC(C)C)NC(=O)[C@@H](N)CC(C)C)C(N)=O [LLKWLKKL]

MIC [11]: 40 µM (≈ 70.7 µg/mL)
MIC [20]: 40 µM (≈ 70.7 µg/mL)
MIC [21]: 3.5 µM (≈ 6.18 µg/mL)
MIC [17]: 1.2 µM (≈ 2.12 µg/mL)
Structure (SMILES): CC[C@H](C)[C@H](NC(=O)[C@H](CCCCN)NC(=O)[C@H](CCCCN)NC(=O)[C@H](Cc1c[nH]c2ccccc12)NC(=O)[C@H](CC(N)=O)NC(=O)[C@@H](N)C(C)C)C(=O)N[C@@H](CC(C)C)C(=O)NCC(=O)N[C@@H](CCCCN)C(=O)N[C@H](C(=O)N[C@H](C(=O)N[C@@H](CCCCN)C(=O)N[C@H](C(=O)N[C@H](C(=O)N[C@@H](CCCCN)C(=O)O)C(C)C)C(C)C)[C@@H](C)CC)[C@@H](C)CC [VNWKKILGKIIKVVK]

MIC [11]: 26.1 µM (≈ 47.2 µg/mL)
MIC [20]: 15.6 µM (≈ 28.2 µg/mL)
MIC [21]: 0.7 µM (≈ 1.27 µg/mL)
MIC [17]: 0.7 µM (≈ 1.27 µg/mL)
Structure (SMILES): CC[C@H](C)[C@H](NC(=O)[C@H](CCCCN)NC(=O)[C@H](CCCCN)NC(=O)[C@H](Cc1c[nH]c2ccccc12)NC(=O)[C@H](CC(N)=O)NC(=O)[C@@H](N)C(C)C)C(=O)N[C@@H](CC(C)C)C(=O)N[C@@H](CCCCN)C(=O)N[C@@H](CCCCN)C(=O)N[C@H](C(=O)N[C@H](C(=O)N[C@@H](CCCCN)C(=O)N[C@H](C(=O)N[C@@H](C)C(=O)N[C@@H](CCCCN)C(N)=O)C(C)C)[C@@H](C)CC)[C@@H](C)CC [VNWKKILKKIIKVAK]

Continued, compound first:

Structure (SMILES): CC[C@H](C)[C@H](NC(=O)CN)C(=O)N[C@@H](CC(C)C)C(=O)N[C@@H](CC(=O)O)C(=O)N[C@@H](C)C(=O)N[C@H](C(=O)N[C@@H](CCCCN)C(=O)N[C@@H](C)C(=O)N[C@@H](Cc1ccccc1)C(=O)N[C@@H](C)C(=O)N[C@@H](CC(N)=O)C(=O)N[C@@H](C)C(=O)N[C@@H](CC(C)C)C(=O)NCC(N)=O)[C@@H](C)CC [GILDAIKAFANALG]
MIC [10]: ≥ 48 µM
MIC [11]: 4 µM (≈ 5.5 µg/mL)
MIC [4]: 32 µM (≈ 44 µg/mL)
MIC [12]: 2 µM (≈ 2.75 µg/mL)
MIC [13]: 8.01 µM (≈ 11 µg/mL)
MIC [14]: 4 µM (≈ 5.5 µg/mL)
MIC [9]: 4 µM (≈ 5.5 µg/mL)

Structure (SMILES): CC(C)C[C@H](NC(=O)[C@H](CCC(N)=O)NC(=O)[C@H](CCCCN)NC(=O)[C@H](Cc1ccc(O)cc1)NC(=O)[C@@H]1CCCN1C(=O)[C@H](CCC(N)=O)NC(=O)[C@H](C)NC(=O)[C@H](CO)NC(=O)CN)C(=O)N[C@@H](Cc1cnc[nH]1)C(=O)N[C@@H](CCCCN)C(=O)N[C@H](C(=O)N[C@H](C(=O)N[C@@H](CC(N)=O)C(=O)N[C@@H](Cc1c[nH]c2ccccc12)C(=O)N[C@@H](CC(=O)O)C(=O)N1CCC[C@H]1C(=O)N[C@@H](Cc1ccc(O)cc1)C(=O)NCC(=O)O)C(C)C)C(C)C [GSAQPYKQLHKVVNWDPYG]
MIC [10]: 13.7 µM (≈ 30 µg/mL)
MIC [4]: > 45.7 µM
MIC [12]: 27.4 µM (≈ 60 µg/mL)
MIC [14]: 6.86 µM (≈ 15 µg/mL)

Structure (SMILES): CC[C@H](C)[C@H](N)C(=O)N[C@@H](CCCCN)C(=O)N[C@@H](Cc1c[nH]c2ccccc12)C(=O)N[C@@H](CCCCN)C(=O)N[C@@H](CCCCN)C(=O)N[C@@H](CC(C)C)C(=O)N[C@@H](CC(C)C)C(=O)N[C@@H](CCCN=C(N)N)C(=O)N[C@@H](C)C(=O)N[C@@H](C)C(=O)N[C@@H](CCCCN)C(=O)N[C@@H](CCCN=C(N)N)C(=O)N[C@H](C(=O)N[C@@H](CC(C)C)C(N)=O)[C@@H](C)CC [IKWKKLLRAAKRIL]
MIC [15]: 6.25 µM (≈ 10.9 µg/mL)
MIC [16]: 6.2 µM (≈ 10.8 µg/mL)
MIC [17]: 12.5 µM (≈ 21.7 µg/mL)
MIC [18]: 3.1 µM (≈ 5.38 µg/mL)

Structure (SMILES): CC[C@H](C)[C@H](NC(=O)[C@@H]1CCCN1C(=O)[C@H](Cc1cnc[nH]1)NC(=O)[C@H](CCCCN)NC(=O)[C@@H]1CCCN1C(=O)[C@@H](N)CCCNC(=N)N)C(=O)N[C@@H](CCCCN)C(=O)N[C@@H](Cc1cnc[nH]1)C(=O)N[C@@H](CCC(N)=O)C(=O)NCC(=O)N[C@@H](CC(C)C)C(=O)N1CCC[C@H]1C(=O)N[C@@H](CCC(N)=O)C(=O)N[C@@H](CCC(=O)O)C(=O)N[C@H](C(=O)N[C@@H](CC(C)C)C(=O)N[C@@H](CC(N)=O)C(=O)N[C@@H](CCC(=O)O)C(=O)N[C@@H](CC(N)=O)C(=O)N[C@@H](CC(C)C)C(=O)N[C@@H](CC(C)C)C(=O)N[C@@H](CCCNC(=N)N)C(=O)N[C@@H](Cc1ccccc1)C(=O)O)C(C)C [RPKHPIKHQGLPQEVLNENLLRF]
MIC [16]: ≥ 100 µM
MIC [18]: ≥ 100 µM

Structure (SMILES): CC[C@H](C)[C@H](NC(=O)[C@H](CCCN=C(N)N)NC(=O)[C@H](CCC(N)=O)NC(=O)[C@@H](NC(=O)[C@@H](NC(=O)[C@H](CCCN=C(N)N)NC(=O)[C@@H](N)CCCN=C(N)N)[C@@H](C)CC)C(C)C)C(=O)N[C@@H](CCCN=C(N)N)C(=O)N[C@@H](CC(=O)O)C(=O)N[C@@H](Cc1ccccc1)C(=O)N[C@@H](CC(C)C)C(=O)N[C@@H](CCCN=C(N)N)C(N)=O [RRIVQRIRDFLR]
MIC [18]: 30 µM (≈ 48.8 µg/mL)
